Consider one compound from patent US7592357B2, “Compounds” (SmithKline Beecham Corporation, priority 2004, dated 2009).

The structures appear in SMILES notation.

The target in this experiment is T1, human recombinant ROCK1 kinase domain (amino acid 2-543) (Homo sapiens, UniProt Q13464).
T1 construct: ROCK1 kinase domain (amino acid 2-543); His-tag; made in house; host or cells: Sf9 cells
Briefly: ROCK Kinase Assay. As to conditions: 1 nM hROCK1, 1 uM ATP, SPA; results recorded as pIC50; range tested 50 uM to 0.8 nM or 10 uM to 0.8 nM. In kind it is biochemical. The protocol: ROCK inhibitor activity was determined using human recombinant ROCK1 kinase domain (amino acid 2-543) expressed in Sf9 cells (see WO9967283). The enzyme was purified using His-tag NTA column and Source15 HPLC chromatography. The assay of Rock-1 activity involved incubation with peptide substrate and ATP^33, the subsequent incorporation of P^33 into the peptide was quantified by Scintillation Proximity Assay (SPA—Amersham Pharmacia).
For IC50 determination, test compounds were typically dissolved at 10 mM in 100% DMSO, with subsequent serial dilution in 100% DMSO. Compounds were typically assayed over an eleven point dilution range with a concentration in the assay of 50 uM to 0.8 nM, in 3-fold dilutions. IC50) values were calculated by bespoke curve fitting software and then converted to pIC50. In some cases, compounds were assayed over an eleven point dilution range with a concentration in the assay of 10 uM to 0.8 nM, in 3-fold dilutions. […]
Assays were performed in opaque, white walled, 384 well plates, in a total assay volume of 20 ul. […] P^33 incorporation was quantified by scintillation counting in a Packard TopCount. When the reaction was terminated by addition of a 10 ul solution, P33 incorporation was quantified by luminescence detection using a PerkinElmer Viewlux ultraHTS microplate imager.

T1 sequence (Q13464 2-543): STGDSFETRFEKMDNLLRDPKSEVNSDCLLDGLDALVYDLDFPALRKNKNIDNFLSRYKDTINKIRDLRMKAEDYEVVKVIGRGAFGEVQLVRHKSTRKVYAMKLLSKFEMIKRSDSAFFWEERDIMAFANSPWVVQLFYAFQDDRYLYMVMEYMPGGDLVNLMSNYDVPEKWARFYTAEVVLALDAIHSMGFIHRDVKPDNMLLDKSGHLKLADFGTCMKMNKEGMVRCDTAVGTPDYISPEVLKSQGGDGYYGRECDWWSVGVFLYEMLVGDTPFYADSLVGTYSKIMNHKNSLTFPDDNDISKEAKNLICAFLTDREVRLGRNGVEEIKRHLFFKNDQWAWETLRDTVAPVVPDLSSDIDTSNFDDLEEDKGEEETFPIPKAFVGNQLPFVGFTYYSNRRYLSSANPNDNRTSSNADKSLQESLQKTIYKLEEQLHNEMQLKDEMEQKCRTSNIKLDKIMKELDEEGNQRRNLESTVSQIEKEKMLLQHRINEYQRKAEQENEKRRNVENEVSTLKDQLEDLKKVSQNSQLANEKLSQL

As to `COc1cccc(CN2C(=O)CC(c3ccc(C(F)(F)F)cc3)C(C(=O)Nc3cc4cn[nH]c4cc3F)=C2C)c1` (stereo not shown) [Example 104, N-(6-Fluoro-1H-indazol-5-yl)-2-methyl-1-{[3-(methyloxy)phenyl]methyl}-6-oxo-4-[4-(trifluoromethyl)phenyl]-1,4,5,6-tetrahydro-3-pyridinecarboxamide], the “activity in the ROCK kinase assay” value is “not active”.
